According to PubChem BioAssay AID252 (DTP/NCI, 2004):
“And” between values parts separate entries of the source, which are not always exact repeats. Identical values can stand only once. Inconclusive results and toxic doses are left out.

Test system: BDF1 mice, intracerebral L1210 leukemia, survival T/C
Assay: NCI In Vivo Anticancer Drug Screen. Data for tumor model L1210 Leukemia (intracerebral) in B6D2F1 (BDF1) mice
Settings: higher = longer survival
In short: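 Tumour was transplanted, animals received compound or vehicle, then survival in each group was measured and treated divided by control.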

[1] = endpoint: mean survival time, dose: 1.0 mg/kg/injection, schedule: Q01DX009 (ip), vehicle: saline
[2] = endpoint: mean survival time, dose: 2.0 mg/kg/injection, schedule: Q01DX009 (ip), vehicle: saline
[3] = endpoint: mean survival time, dose: 4.0 mg/kg/injection, schedule: Q01DX009 (ip), vehicle: saline
[4] = endpoint: mean survival time, dose: 10.0 mg/kg/injection, schedule: Q01DX001 (ip), vehicle: other
[5] = endpoint: mean survival time, dose: 20.0 mg/kg/injection, schedule: Q01DX001 (ip), vehicle: other
[6] = endpoint: mean survival time, dose: 0.5 mg/kg/injection, schedule: Q01DX009 (ip), vehicle: saline

O=NN(CCCl)C(=O)NC1C2CC3CC(C2)CC1C3 (stereo not given)
T/C (endpoint: mean survival time, dose: 22.0 mg/kg/injection, schedule: Q01DX001 (ip), vehicle: other): 109 % of control and 119 % of control
T/C (endpoint: mean survival time, dose: 45.0 mg/kg/injection, schedule: Q01DX001 (ip), vehicle: other): 175 % of control and 231 % of control
T/C (endpoint: mean survival time, dose: 91.0 mg/kg/injection, schedule: Q01DX001 (ip), vehicle: other): 340 % of control and 376 % of control
T/C (endpoint: mean survival time, dose: 144.0 mg/kg/injection, schedule: Q01DX001 (ip), vehicle: other): 153 % of control
T/C (endpoint: mean survival time, dose: 181.0 mg/kg/injection, schedule: Q01DX001 (ip), vehicle: other): 250 % of control and 335 % of control
T/C (endpoint: mean survival time, dose: 215.0 mg/kg/injection, schedule: Q01DX001 (ip), vehicle: other): 238 % of control
T/C (endpoint: mean survival time, dose: 322.0 mg/kg/injection, schedule: Q01DX001 (ip), vehicle: other): 217 % of control
T/C (endpoint: mean survival time, dose: 362.0 mg/kg/injection, schedule: Q01DX001 (ip), vehicle: other): 103 % of control

CCCCCCC(=O)NC1=C(N2CC2)C(=O)C(NC(=O)CCCCCC)=C(N2CC2)C1=O
T/C (endpoint: mean survival time, dose: 20.0 mg/kg/injection, schedule: Q01DX009 (ip), vehicle: Klucel (hydroxypropylcellulose) (HPC)): 100 % of control
T/C (endpoint: mean survival time, dose: 40.0 mg/kg/injection, schedule: Q01DX009 (ip), vehicle: Klucel (hydroxypropylcellulose) (HPC)): 105 % of control
T/C (endpoint: mean survival time, dose: 80.0 mg/kg/injection, schedule: Q01DX009 (ip), vehicle: Klucel (hydroxypropylcellulose) (HPC)): 120 % of control
T/C (endpoint: mean survival time, dose: 160.0 mg/kg/injection, schedule: Q01DX009 (ip), vehicle: Klucel (hydroxypropylcellulose) (HPC)): 106 % of control

O=C(NO)c1ccncc1
T/C (endpoint: mean survival time, dose: 100.0 mg/kg/injection, schedule: Q01DX009 (ip), vehicle: water): 91 % of control
T/C (endpoint: mean survival time, dose: 200.0 mg/kg/injection, schedule: Q01DX009 (ip), vehicle: water): 92 % of control
T/C (endpoint: mean survival time, dose: 400.0 mg/kg/injection, schedule: Q01DX009 (ip), vehicle: water): 86 % of control
T/C (endpoint: mean survival time, dose: 600.0 mg/kg/injection, schedule: Q01DX009 (ip), vehicle: water): 89 % of control

OC(C1CO1)C(O)C1CO1 (stereo not given)
T/C (endpoint: mean survival time, dose: 0.65 mg/kg/injection, schedule: Q01DX009 (ip), vehicle: water): 96 % of control
T/C [1]: 109 % of control and 120 % of control
T/C (endpoint: mean survival time, dose: 1.08 mg/kg/injection, schedule: Q01DX009 (ip), vehicle: water): 110 % of control
T/C (endpoint: mean survival time, dose: 1.8 mg/kg/injection, schedule: Q01DX009 (ip), vehicle: water): 123 % of control
T/C [2]: 92 % of control
T/C (endpoint: mean survival time, dose: 2.0 mg/kg/injection, schedule: Q03HX024 (ip), vehicle: saline): 87 % of control
T/C (endpoint: mean survival time, dose: 2.5 mg/kg/injection, schedule: Q01DX001 (ip), vehicle: water): 109 % of control
T/C [3]: 103 % of control and 92 % of control
T/C (endpoint: mean survival time, dose: 20.0 mg/kg/injection, schedule: Q01DX001 (ip), vehicle: water): 104 % of control
T/C (endpoint: mean survival time, dose: 40.0 mg/kg/injection, schedule: Q01DX001 (ip), vehicle: water): 102 % of control
T/C (endpoint: median survival time, dose: 0.5 mg/kg/injection, schedule: Q01DX001 (oral), vehicle: saline): 106 % of control
T/C (endpoint: median survival time, dose: 4.0 mg/kg/injection, schedule: Q01DX001 (oral), vehicle: saline): 115 % of control
T/C (endpoint: median survival time, dose: 8.0 mg/kg/injection, schedule: Q01DX001 (oral), vehicle: saline): 97 % of control
T/C (endpoint: median survival time, dose: 16.0 mg/kg/injection, schedule: Q01DX001 (oral), vehicle: saline): 86 % of control

O=NN(CCCl)C(=O)Nc1ccc(C(F)(F)F)cc1
T/C (endpoint: mean survival time, dose: 37.0 mg/kg/injection, schedule: Q01DX001 (ip), vehicle: carboxymethylcellulose (CMC)): 110 % of control
T/C (endpoint: mean survival time, dose: 50.0 mg/kg/injection, schedule: Q01DX001 (ip), vehicle: carboxymethylcellulose (CMC)): 110 % of control
T/C (endpoint: mean survival time, dose: 75.0 mg/kg/injection, schedule: Q01DX001 (ip), vehicle: carboxymethylcellulose (CMC)): 118 % of control
T/C (endpoint: mean survival time, dose: 112.0 mg/kg/injection, schedule: Q01DX001 (ip), vehicle: carboxymethylcellulose (CMC)): 92 % of control

Cc1cc(C)c(NC(=O)N(CCCl)N=O)c(C)c1
T/C (endpoint: mean survival time, dose: 5.0 mg/kg/injection, schedule: Q01DX001 (ip), vehicle: other): 97 % of control
T/C (endpoint: mean survival time, dose: 7.5 mg/kg/injection, schedule: Q01DX001 (ip), vehicle: other): 98 % of control
T/C [4]: 103 % of control
T/C (endpoint: mean survival time, dose: 15.0 mg/kg/injection, schedule: Q01DX001 (ip), vehicle: other): 107 % of control and 117 % of control
T/C [5]: 115 % of control
T/C (endpoint: mean survival time, dose: 128.0 mg/kg/injection, schedule: Q01DX001 (ip), vehicle: other): 101 % of control

O=C1N[C@@H]([C@H]2CC[C@H](Cl)CN2)C(=O)N[C@H]1[C@H]1CC[C@H](Cl)CN1
T/C [6]: 110 % of control
T/C (endpoint: mean survival time, dose: 1.0 mg/kg/injection, schedule: Q01DX001 (ip), vehicle: saline): 102 % of control
T/C [1]: 118 % of control
T/C (endpoint: mean survival time, dose: 2.0 mg/kg/injection, schedule: Q01DX001 (ip), vehicle: saline): 103 % of control and 100 % of control
T/C (endpoint: mean survival time, dose: 4.0 mg/kg/injection, schedule: Q01DX001 (ip), vehicle: saline): 103 % of control and 119 % of control
T/C (endpoint: mean survival time, dose: 8.0 mg/kg/injection, schedule: Q01DX001 (ip), vehicle: saline): 105 % of control and 123 % of control

CC(C)(C)C1CCC(NC(=O)N(CCCl)N=O)CC1 (stereo not given)
T/C (endpoint: mean survival time, dose: 177.0 mg/kg/injection, schedule: Q01DX001 (ip), vehicle: other): 170 % of control
T/C (endpoint: mean survival time, dose: 250.0 mg/kg/injection, schedule: Q01DX001 (ip), vehicle: other): 156 % of control and 158 % of control
T/C (endpoint: mean survival time, dose: 354.0 mg/kg/injection, schedule: Q01DX001 (ip), vehicle: other): 247 % of control
T/C (endpoint: mean survival time, dose: 375.0 mg/kg/injection, schedule: Q01DX001 (ip), vehicle: other): 196 % of control and 210 % of control
T/C (endpoint: mean survival time, dose: 472.0 mg/kg/injection, schedule: Q01DX001 (ip), vehicle: other): 155 % of control
T/C (endpoint: mean survival time, dose: 500.0 mg/kg/injection, schedule: Q01DX001 (ip), vehicle: other): 186 % of control and 201 % of control
T/C (endpoint: mean survival time, dose: 708.0 mg/kg/injection, schedule: Q01DX001 (ip), vehicle: other): 86 % of control
T/C (endpoint: mean survival time, dose: 750.0 mg/kg/injection, schedule: Q01DX001 (ip), vehicle: other): 152 % of control

CN(N=O)C(=O)NC(=O)N(C)N=O
T/C (endpoint: mean survival time, dose: 27.5 mg/kg/injection, schedule: Q01DX001 (ip), vehicle: carboxymethylcellulose (CMC)): 107 % of control
T/C (endpoint: mean survival time, dose: 54.0 mg/kg/injection, schedule: Q01DX001 (ip), vehicle: carboxymethylcellulose (CMC)): 104 % of control

O=NN(CCF)C(=O)NC12CC3CC(CC(C3)C1)C2
T/C [4]: 103 % of control
T/C [5]: 101 % of control
T/C (endpoint: mean survival time, dose: 40.0 mg/kg/injection, schedule: Q01DX001 (ip), vehicle: other): 110 % of control
T/C (endpoint: mean survival time, dose: 60.0 mg/kg/injection, schedule: Q01DX001 (ip), vehicle: other): 120 % of control

CCC(=O)NC1=C(N2CC2C)C(=O)C(NC(=O)CC)=C(N2CC2C)C1=O (stereo not given)
T/C (endpoint: mean survival time, dose: 1.56 mg/kg/injection, schedule: Q01DX009 (ip), vehicle: Klucel (hydroxypropylcellulose) (HPC)): 96 % of control
T/C (endpoint: mean survival time, dose: 3.12 mg/kg/injection, schedule: Q01DX009 (ip), vehicle: Klucel (hydroxypropylcellulose) (HPC)): 94 % of control
T/C (endpoint: mean survival time, dose: 12.5 mg/kg/injection, schedule: Q01DX009 (ip), vehicle: Klucel (hydroxypropylcellulose) (HPC)): 122 % of control and 335 % of control
T/C (endpoint: mean survival time, dose: 25.0 mg/kg/injection, schedule: Q01DX009 (ip), vehicle: Klucel (hydroxypropylcellulose) (HPC)): 101 % of control and 107 % of control

COC1=C(N2CC2)C(=O)C(OC)=C(N2CC2)C1=O
T/C (endpoint: mean survival time, dose: 0.12 mg/kg/injection, schedule: Q01DX009 (ip), vehicle: saline): 101 % of control
T/C (endpoint: mean survival time, dose: 0.25 mg/kg/injection, schedule: Q01DX009 (ip), vehicle: saline): 95 % of control
T/C [6]: 104 % of control and 106 % of control and 98 % of control
T/C [1]: 105 % of control and 111 % of control and 121 % of control
T/C [2]: 114 % of control and 117 % of control
T/C [3]: 86 % of control

Nc1nc(=S)c2ncn(C3OC(CO)C(O)C3O)c2[nH]1 (stereo not given)
T/C (endpoint: mean survival time, dose: 0.66 mg/kg/injection, schedule: Q01DX015 (ip), vehicle: carboxymethylcellulose (CMC)): 105 % of control
T/C (endpoint: mean survival time, dose: 1.0 mg/kg/injection, schedule: Q01DX015 (ip), vehicle: carboxymethylcellulose (CMC)): 115 % of control
T/C (endpoint: mean survival time, dose: 1.5 mg/kg/injection, schedule: Q01DX015 (ip), vehicle: carboxymethylcellulose (CMC)): 121 % of control
T/C (endpoint: mean survival time, dose: 95.0 mg/kg/injection, schedule: Q01DX001 (ip), vehicle: carboxymethylcellulose (CMC)): 157 % of control
T/C (endpoint: mean survival time, dose: 144.0 mg/kg/injection, schedule: Q01DX001 (ip), vehicle: carboxymethylcellulose (CMC)): 171 % of control
T/C (endpoint: mean survival time, dose: 215.0 mg/kg/injection, schedule: Q01DX001 (ip), vehicle: carboxymethylcellulose (CMC)): 152 % of control

O=C1C=CN(C2OC(CO)C(O)C2O)C(=O)C1 (stereo not given)
T/C (endpoint: median survival time, dose: 200.0 mg/kg/injection, schedule: Q01DX009 (ip), vehicle: saline): 150 % of control

O=C(O)CCCc1ccc(N(CCCl)CCCl)cc1
T/C (endpoint: mean survival time, dose: 18.0 mg/kg/injection, schedule: Q01DX001 (ip), vehicle: carboxymethylcellulose (CMC)): 105 % of control
T/C (endpoint: mean survival time, dose: 27.0 mg/kg/injection, schedule: Q01DX001 (ip), vehicle: carboxymethylcellulose (CMC)): 112 % of control
T/C (endpoint: mean survival time, dose: 41.0 mg/kg/injection, schedule: Q01DX001 (ip), vehicle: carboxymethylcellulose (CMC)): 112 % of control
